Measurements as given in PubChem BioAssay (NCI).
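Test compounds were applied to cells in 96-well plates for 48 hours at 5 doses. At the GI50, growth is halved. TGI: concentration producing complete growth inhibition.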

What was measured:
Assay in all cases: NCI-60 cell line screen, 48 h
[1] = tested on: UACC-257 melanoma
[2] = tested on: HCT-15 colon
[3] = tested on: MALME-3M melanoma
[4] = tested on: NCI-H522 lung
[5] = tested on: NCI/ADR-RES ovarian
[6] = tested on: NCI-H460 lung
[7] = tested on: UACC-62 melanoma
[8] = tested on: OVCAR-5 ovarian
[9] = tested on: HCT-116 colon
[10] = tested on: M14 melanoma
[11] = tested on: SK-MEL-5 melanoma
[12] = tested on: SF-268 CNS
[13] = tested on: 786-0 renal
[14] = tested on: U251 CNS
[15] = tested on: RXF 393 renal
[16] = tested on: K-562 leukemia
[17] = tested on: SK-MEL-2 melanoma
[18] = tested on: HL-60(TB) leukemia
[19] = tested on: SN12C renal
[20] = tested on: OVCAR-8 ovarian
[21] = tested on: HCC-2998 colon
[22] = tested on: HOP-62 NSCLC
[23] = tested on: CAKI-1 renal
[24] = tested on: HS 578T breast
[25] = tested on: MCF7 breast
[26] = tested on: MDA-MB-231 breast
[27] = tested on: TK-10 renal
[28] = tested on: SR leukemia
[29] = tested on: RPMI-8226 leukemia
[30] = tested on: DU-145 prostate
[31] = tested on: SNB-19 CNS
[32] = tested on: HT29 colon
[33] = tested on: COLO 205 colon
[34] = tested on: SK-OV-3 ovarian
[35] = tested on: ACHN renal
[36] = tested on: IGROV1 ovarian
[37] = tested on: HOP-92 NSCLC
[38] = tested on: OVCAR-4 ovarian
[39] = tested on: EKVX NSCLC
[40] = tested on: SF-539 CNS
[41] = tested on: CCRF-CEM leukemia
[42] = tested on: SF-295 CNS
[43] = tested on: SK-MEL-28 melanoma
[44] = tested on: KM12 colon
[45] = tested on: SNB-75 CNS
[46] = tested on: OVCAR-3 ovarian
[47] = tested on: BT-549 breast
[48] = tested on: A549 NSCLC
[49] = tested on: MDA-MB-435
[50] = tested on: NCI-H226 lung
[51] = tested on: PC-3 prostate
[52] = tested on: UO-31 renal
[53] = tested on: T-47D breast
[54] = tested on: SW-620 colon
[55] = tested on: A498 renal
[56] = tested on: MOLT-4 leukemia
[57] = tested on: LOX IMVI melanoma

## C#C[C@]1(O)CC[C@H]2[C@@H]3CC=C4c5sc(-c6ccc(F)cn6)nc5CC[C@]4(C)[C@H]3CC[C@@]21C
[1]
  GI50: 2.25 µM
  TGI: 6.73 µM
[2]
  GI50: 1.89 µM
  TGI: 5.11 µM
[3]
  GI50: 3.29 µM
  TGI: 11.7 µM
[4]
  GI50: 2.06 µM
  TGI: 5.78 µM
[5]
  GI50: 4.12 µM
  TGI: 23.6 µM
[6]
  GI50: 3.03 µM
  TGI: 12.5 µM
[7]
  GI50: 2.65 µM
  TGI: 8.53 µM
[8]
  GI50: 4.01 µM
  TGI: 14.8 µM
[9]
  GI50: 1.8 µM
  TGI: 4.3 µM
[10]
  GI50: 2.77 µM
  TGI: 11.7 µM
[11]
  GI50: 2.62 µM
  TGI: 7.23 µM
[12]
  GI50: 3.46 µM
  TGI: 18.4 µM
[13]
  GI50: 1.36 µM
  TGI: 3.33 µM
[14]
  GI50: 1.68 µM
  TGI: 7.05 µM
[15]
  GI50: 0.309 µM
  TGI: 0.956 µM
[16]
  GI50: 2.49 µM
  TGI: > 100 µM
[17]
  GI50: 2.33 µM
  TGI: 6.58 µM
[18]
  GI50: 2.77 µM
  TGI: 10.9 µM
[19]
  GI50: 4.54 µM
  TGI: 17.5 µM
[20]
  GI50: 3.16 µM
  TGI: 14.3 µM
[21]
  GI50: 5.16 µM
  TGI: 17.8 µM
[22]
  GI50: 2.28 µM
  TGI: 7.25 µM
[23]
  GI50: 2.12 µM
  TGI: 6.27 µM
[24]
  GI50: 1.45 µM
  TGI: 5.26 µM
[25]
  GI50: 1.5 µM
  TGI: 3.38 µM
[26]
  GI50: 2.4 µM
  TGI: 7.14 µM
[27]
  GI50: 5.31 µM
  TGI: 17.3 µM
[28]
  GI50: 2.21 µM
  TGI: 8.39 µM
[29]
  GI50: 0.365 µM
  TGI: 1.72 µM
[30]
  GI50: 4.62 µM
  TGI: 18.9 µM
[31]
  GI50: 2.72 µM
  TGI: 12.7 µM
[32]
  GI50: 2.02 µM
  TGI: 4.6 µM
[33]
  GI50: 2.62 µM
  TGI: 11.1 µM
[34]
  GI50: 2.29 µM
  TGI: 5.64 µM
[35]
  GI50: 3.43 µM
  TGI: 14 µM
[36]
  GI50: 4.96 µM
  TGI: 20.8 µM
[37]
  GI50: 2.02 µM
  TGI: 6.83 µM
[38]
  GI50: 4.41 µM
  TGI: 18.5 µM
[39]
  GI50: 2.89 µM
  TGI: 12.9 µM
[40]
  GI50: 1.23 µM
  TGI: 2.88 µM
[41]
  GI50: 2.71 µM
  TGI: 33.5 µM
[42]
  GI50: 1.24 µM
  TGI: 2.96 µM
[43]
  GI50: 1.64 µM
  TGI: 3.88 µM
[44]
  GI50: 3.26 µM
  TGI: 20.8 µM
[45]
  GI50: 2.45 µM
  TGI: 15 µM
[46]
  GI50: 3.86 µM
  TGI: 72.4 µM
[47]
  GI50: 1.77 µM
  TGI: 5.02 µM
[48]
  GI50: 3.44 µM
  TGI: 15.1 µM
[49]
  GI50: 2.28 µM
  TGI: 6.84 µM
[50]
  GI50: 2.93 µM
  TGI: 13.1 µM
[51]
  GI50: 1.73 µM
  TGI: 7.64 µM
[52]
  GI50: 2.32 µM
  TGI: 5.62 µM
[53]
  GI50: 3.43 µM
  TGI: 16.1 µM
[54]
  GI50: 2.62 µM
  TGI: 8.01 µM
[55]
  GI50: 2.05 µM
  TGI: 4.06 µM
[56]
  GI50: 2.01 µM
  TGI: 8.06 µM
[57]
  GI50: 1.82 µM
  TGI: 3.35 µM
